According to the supplement of paper PMC5579334:
± gives the standard deviation of the averaged measurements.

Experiments:
HS-PSS [1] = assay: % inhibition of CellTiter-Glo viability at highest tested concentration (72 h), relative to DMSO and benzethonium chloride controls; higher = more inhibition
How it was run: (§1)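 MPNST cell lines and primary human Schwann cells were seeded at 750–1000 cells per well into 384-well plates preprinted with each compound at five concentrations in 10-fold steps, then incubated 72 h at 37 °C, 5% CO2. CellTiter-Glo ATP luminescence gave viability, scaled between vehicle and positive-control wells, with duplicates averaged where present. Curves were fitted with a four-parameter logistic model. Percent inhibition refers to the top concentration, while drug sensitivity score and relative IC50, censored at the top concentration, come from these fits.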

[2] = system: HSC2 (primary human Schwann cells); assay: as above
How it was run: as §1

HS-Sch-2 [3] = assay: as above
How it was run: as §1

[4] = system: HSC1 (primary human Schwann cells); assay: as above
How it was run: as §1

S1507-2 [5] = assay: as above
How it was run: as §1

ST8814 [6] = assay: as above
How it was run: as §1

YST-1 [7] = assay: as above
How it was run: as §1

STS26T [8] = assay: as above
How it was run: as §1

S462 [9] = assay: as above
How it was run: as §1

HS-PSS [10] = assay: drug sensitivity score (DSS, CellTox-Green cytotoxicity, 72 h) (DSS (dimensionless)); higher = more cytotoxic; extreme values may be limits of the assay
How it was run: (§2)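 For 72 h at 37 °C, MPNST cell lines and primary human Schwann cells were exposed in 384-well plates to five 10-fold compound dilutions. CellTox-Green, added before seeding at a final 1:1000 dilution, gave fluorescence from DNA released by disrupted cells. Signals were scaled to vehicle and positive-control wells, cultures failing plate quality control were left out, and four-parameter logistic fits were applied. Relative IC50 and drug sensitivity score were derived from the fits, with IC50 censored at the top concentration.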

[11] = system: HSC2 (primary human Schwann cells); assay: as above
How it was run: as §2

[12] = system: HSC1 (primary human Schwann cells); assay: as above
How it was run: as §2

S1507-2 [13] = assay: as above
How it was run: as §2

ST8814 [14] = assay: as above
How it was run: as §2

STS26T [15] = assay: as above
How it was run: as §2

HS-PSS [16] = assay: drug sensitivity score (DSS, CellTiter-Glo viability, 72 h) (DSS (dimensionless)); higher = more sensitive; extreme values may be limits of the assay
How it was run: as §1

[17] = system: HSC2 (primary human Schwann cells); assay: as above
How it was run: as §1

HS-Sch-2 [18] = assay: as above
How it was run: as §1

[19] = system: HSC1 (primary human Schwann cells); assay: as above
How it was run: as §1

S1507-2 [20] = assay: as above
How it was run: as §1

ST8814 [21] = assay: as above
How it was run: as §1

YST-1 [22] = assay: as above
How it was run: as §1

STS26T [23] = assay: as above
How it was run: as §1

S462 [24] = assay: as above
How it was run: as §1

| SMILES | % inhibition (HS-PSS [1]) [%] | % inhibition [2] [%] | % inhibition (HS-Sch-2 [3]) [%] | % inhibition [4] [%] | % inhibition (S1507-2 [5]) [%] | % inhibition (ST8814 [6]) [%] | % inhibition (YST-1 [7]) [%] | % inhibition (STS26T [8]) [%] | % inhibition (S462 [9]) [%] | drug sensitivity score (HS-PSS [10]) | drug sensitivity score [11] | drug sensitivity score [12] | drug sensitivity score (S1507-2 [13]) | drug sensitivity score (ST8814 [14]) | drug sensitivity score (STS26T [15]) | drug sensitivity score (HS-PSS [16]) | drug sensitivity score [17] | drug sensitivity score (HS-Sch-2 [18]) | drug sensitivity score [19] | drug sensitivity score (S1507-2 [20]) | drug sensitivity score (ST8814 [21]) | drug sensitivity score (YST-1 [22]) | drug sensitivity score (STS26T [23]) | drug sensitivity score (S462 [24]) |
| --- | --- | --- | --- | --- | --- | --- | --- | --- | --- | --- | --- | --- | --- | --- | --- | --- | --- | --- | --- | --- | --- | --- | --- | --- |
| Cn1cnc2c(F)c(Nc3ccc(Br)cc3Cl)c(C(=O)NOCCO)cc21 [Selumetinib] (max concentration tested 10000 nM) | 12.8 | 44.1 | 35.6 | 41.3 | 50.8 ± 4.4 | 51.4 | 5.28 | 33.6 | 51.8 ± 5.1 | 0 | 0 | 0 | 0.984 ± 0.39 | 1.43 | 0 | 0.02 | 3.74 | 2.54 | 2.51 | 7.78 ± 3.3 | 5.82 | 0 | 4.18 | 5.86 ± 0.93 |
| CO[C@H]1C[C@@H]2CC[C@@H](C)[C@@](O)(O2)C(=O)C(=O)N2CCCC[C@H]2C(=O)O[C@H]([C@H](C)C[C@@H]2CC[C@@H](OC(=O)C(C)(CO)CO)[C@H](OC)C2)CC(=O)[C@H](C)/C=C(\C)[C@@H](O)[C@@H](OC)C(=O)[C@H](C)C[C@H](C)/C=C/C=C/C=C/1C [Temsirolimus] (max concentration tested 100 nM) | 30.8 | 51.2 | 29.2 | 47 | 28.4 ± 1.3 | 23.2 | 46.1 | 47.2 | 31.8 ± 11 | 0 | 0 | 0 | 0.915 ± 1.3 | 0 | 0 | 7.73 | 16.5 | 5.67 | 17.5 | 7.14 ± 2.6 | 6.83 | 9.18 | 14.4 | 6.03 ± 0.88 |
| O=C(Nc1cccnc1)N1CCC(Cc2cccc(Oc3ccc(C(F)(F)F)cn3)c2)CC1 [PF-3845] (max concentration tested 10000 nM) | 79.6 | 35.3 | 79 | 33.5 | 2.03 ± 3.1 | 11.5 | 25.5 | 24.2 | 20.3 ± 0.84 | 0 | 0.053 | 0 | 0 | 0 | 0 | 7.9 | 3.19 | 4.52 | 2.77 | 0 | 0.0881 | 0.86 | 1.18 | 0.985 ± 0.1 |
| O=C(O)c1ccc(-c2c[nH]c3ncc(-c4ccccc4)cc23)cc1C1CCCC1 (max concentration tested 10000 nM) | 19.2 | 18.7 | 31 | 8.07 | -2.03 ± 9.5 | 7.81 | 9.07 | -4.89 | 4.19 ± 1.2 | 0 | 0 | 0 | 0.00895 ± 0.013 | 0 | 0 | 0.42 | 0.756 | 1.47 | 0 | 0 | 0 | 0 | 0 | 0 |
| CN(C)/N=N/c1[nH]cnc1C(N)=O [Dacarbazine] (max concentration tested 10000 nM) | 7.14 | -1.82 | 7.05 | 9.74 | -5.83 ± 6.6 | 3.31 | -4.08 | 23.5 | 8.66 ± 8.8 | 0 | 0 | 0 | 0.828 ± 1.2 | 0 | 0 | 0 | 0 | 0 | 0 | 0 | 0 | 0 | 1.17 | 0.065 ± 0.092 |
| C=CC(=O)Nc1cc2c(Nc3ccc(F)c(Cl)c3)ncnc2cc1OCCCN1CCOCC1 [Canertinib] (max concentration tested 10000 nM) | 88.7 | 96.2 | 94.2 | 96.6 | 87.9 ± 0.97 | 96.3 | 96.3 | 96.5 | 96.1 ± 0.97 | 3.38 | 8 | 7.58 | 5.1 ± 0.58 | 4.72 | 4.76 | 6.16 | 7.63 | 6.37 | 8.87 | 7.98 ± 0.98 | 8.06 | 5.36 | 7.19 | 6.03 ± 1 |
